Test results: patent US11142526B2, “Spirocycle compounds and methods of making and using same” (H. Lundbeck A/S, priority 2017, dated 2021)
Read-outs that look alike come from different tables or passages of the source.

Legend:
MAGL [1] = molecular target: T1, MAGL (Mus musculus (Mouse), UniProt O35678); experiment: In vitro competitive activity-based protein profiling, mouse brain proteome; type: biochemical; settings: for inhibition at 1 µM: mouse; for IC50: mouse brain
MAGL [2] = molecular target: MAGL (Homo sapiens (Human), UniProt Q99685); experiment: In vitro competitive activity-based protein profiling (gel-based, FP-Rh or HT-01 probe); type: biochemical; settings: for IC50: read-out: MAGL Human PC3 (IC50)
Sequence of MAGL (Homo sapiens (Human), UniProt Q99685) (Q99685 whole entry): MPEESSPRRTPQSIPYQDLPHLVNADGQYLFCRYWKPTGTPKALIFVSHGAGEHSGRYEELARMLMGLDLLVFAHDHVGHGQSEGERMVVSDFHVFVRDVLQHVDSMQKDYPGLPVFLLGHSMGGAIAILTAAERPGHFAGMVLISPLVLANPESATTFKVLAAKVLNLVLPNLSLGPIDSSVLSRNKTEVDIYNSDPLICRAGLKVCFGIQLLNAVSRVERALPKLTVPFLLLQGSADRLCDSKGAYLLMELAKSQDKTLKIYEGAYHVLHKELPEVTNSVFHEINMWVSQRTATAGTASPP
Experimental: In Vitro Competitive Activity-Based Protein Profiling.
Proteomes (human prefrontal cortex or cell membrane fractions) (50 μL, 1.0 mg/mL total protein concentration) were preincubated with varying concentrations of inhibitors at 37° C. After 30 min, FP-Rh or HT-01 (1.0 μL, 50 μM in DMSO) was added and the mixture was incubated for another 30 min at room temperature. Reactions were quenched with SDS loading buffer (15 μL—4×) and run on SDS-PAGE.

MAGL [3] = molecular target: T1, MAGL; experiment: Mouse brain proteomes from inhibitor treated mice (oral gavage, brain MAGL activity 4 h after administration); type: in vivo; settings: 5 mg/kg oral gavage
Experimental: Preparation of Mouse Brain Proteomes from Inhibitor Treated Mice.
Inhibitors were administered to wild-type C57B1/6J by oral gavage in a vehicle of polyethylene glycol.

[4] = human PC3, read-out: MAGL % Inhibition at 1 μM (human PC3)
[5] = human PFC (prefrontal cortex), read-out: MAGL % Inhibition at 1 μM (human PFC)

T1 sequence (O35678 whole entry): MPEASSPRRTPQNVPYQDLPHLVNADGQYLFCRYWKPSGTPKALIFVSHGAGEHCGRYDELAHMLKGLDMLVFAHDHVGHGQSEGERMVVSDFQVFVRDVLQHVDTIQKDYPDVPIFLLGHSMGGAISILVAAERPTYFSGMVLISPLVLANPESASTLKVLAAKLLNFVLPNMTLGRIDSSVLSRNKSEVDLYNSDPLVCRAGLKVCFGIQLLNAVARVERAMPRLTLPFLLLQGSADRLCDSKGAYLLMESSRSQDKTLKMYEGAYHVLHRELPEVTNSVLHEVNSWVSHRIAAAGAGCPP

Row | SMILES | inhibition at 1 µM (MAGL [1]) | inhibition at 1 µM (MAGL [2]; [4]) | inhibition at 1 µM (MAGL [2]; [5]) | IC50 (MAGL [2]; human PC3) | IC50 (MAGL [1]) | MAGL % Inhibition at 5 mg/kg (Mouse) (MAGL [3])
1 | O=C(OC(C(F)(F)F)C(F)(F)F)N1CCC2(CCCN2C(=O)C2(c3cccnn3)CC2)CC1 [Example 179, 1,1,1,3,3,3-Hexafluoropropan-2-yl 1-(1-(pyridazin-3-yl)cyclopropane-1-carbonyl)-1,8-diazaspiro [4.5]decane-8-carboxylate] | > 75% | > 75% | > 75% | < 100 nM | – | ## (% inhibition is less than 75% and greater than 25%)
2 | COc1nccc(C2(C(=O)N3CCCC34CCN(C(=O)OC(C(F)(F)F)C(F)(F)F)CC4)CC2)n1 [Example 200, 1,1,1,3,3,3-Hexafluoropropan-2-yl 1-(1-(2-methoxypyrimidin-4-yl)cyclopropane-1-carbonyl)-1,8-diazaspiro [4.5]decane-8-carboxylate] | > 75% | > 75% | > 75% | < 100 nM | – | ### (% inhibition is greater than or equal to 75%)
3 | O=C(OC(C(F)(F)F)C(F)(F)F)N1CCC2(CCCN2Cc2cnc(N3CCCC3)s2)CC1 [Example 226, 1,1,1,3,3,3-Hexafluoropropan-2-yl 1-((2-(pyrrolidin-1-yl)thiazol-5-yl)methyl)-1,8-diazaspiro[4.5]decane-8-carboxylate] | > 75% | – | – | < 100 nM | < 100 nM | ### (% inhibition is greater than or equal to 75%)
4 | O=C(OC(C(F)(F)F)C(F)(F)F)N1CCC2(CCCN2Cc2cnc3ccc(Cl)cn23)CC1 [Example 229, 1,1,1,3,3,3-Hexafluoropropan-2-yl 1-((6-chloroimidazo[1,2-a]pyridin-3-yl)methyl)-1,8-diazaspiro[4.5]decane-8-carboxylate] | > 75% | – | – | < 100 nM | < 100 nM | ### (% inhibition is greater than or equal to 75%)
5 | O=C(O)C1CCN(c2nc(C(F)(F)F)ccc2CN2CCCC23CCN(C(=O)OC(C(F)(F)F)C(F)(F)F)CC3)CC1 [Example 123, 1-(3-((8-(((1,1,1,3,3,3-Hexafluoropropan-2-yl)oxy)carbonyl)-1,8-diazaspiro[4.5]decan-1-yl)methyl)-6-(trifluoromethyl)pyridin-2-yl)piperidine-4-carboxylic acid] | > 75% | – | > 75% | < 100 nM | – | ### (% inhibition is greater than or equal to 75%)
6 | CN(C(=O)c1cn2c(n1)CN(C1CC1)CC2)C1(C)CCN(C(=O)OC(C(F)(F)F)C(F)(F)F)CC1 [Example 18, 1,1,1,3,3,3-Hexafluoropropan-2-yl 4-(7-cyclopropyl-N-methyl-5,6,7,8-tetrahydroimidazo[1,2-a]pyrazine-2-carboxamido)-4-methylpiperidine-1-carboxylate] | > 75% | > 75% | > 75% | < 100 nM | < 100 nM | ### (% inhibition is greater than or equal to 75%)
7 | O=C(OC(C(F)(F)F)C(F)(F)F)N1CCC2(CCCN2C(=O)C2(c3ncc(Cl)cn3)CC2)CC1 [Example 31, 1,1,1,3,3,3-Hexafluoropropan-2-yl 1-(1-(5-chloropyrimidin-2-yl)cyclopropane-1-carbonyl)-1,8-diazaspiro[4.5]decane-8-carboxylate] | > 75% | > 75% | > 75% | < 100 nM | – | ### (% inhibition is greater than or equal to 75%)
8 | Cc1nc2ccc(Cl)nn2c1C(=O)N1CCCC12CCN(C(=O)OC(C(F)(F)F)C(F)(F)F)CC2 [Example 142, 1,1,1,3,3,3-Hexafluoropropan-2-yl 1-(6-chloro-2-methylimidazo[1,2-b]pyridazine-3-carbonyl)-1,8-diazaspiro[4.5] decane-8-carboxylate] | > 75% | > 75% | > 75% | < 100 nM | – | ### (% inhibition is greater than or equal to 75%)
9 | CC(C)(O)CN1CCn2cc(C(=O)N3CCCC34CCN(C(=O)OC(C(F)(F)F)C(F)(F)F)CC4)nc2C1 [Example 21, 1,1,1,3,3,3-Hexafluoropropan-2-yl 1-(7-(2-hydroxy-2-methylpropyl)-5,6,7,8-tetrahydroimidazo[1,2-a]pyrazine-2-carbonyl)-1,8-diazaspiro[4.5]decane-8-carboxylate] | > 75% | > 75% | > 75% | < 100 nM | – | # (% inhibition less or equal to 25%)
10 | CC(C)C(=O)N1CCn2cc(C(=O)NC3(C)CCN(C(=O)OC(C(F)(F)F)C(F)(F)F)CC3)nc2C1 [Example 37, 1,1,1,3,3,3-Hexafluoropropan-2-yl 4-(7-isobutyryl-5,6,7,8-tetrahydroimidazo[1,2-a]pyrazine-2-carboxamido)-4-methylpiperidine-1-carboxylate] | > 75% | > 75% | > 75% | < 100 nM | – | # (% inhibition less or equal to 25%)
11 | Cc1nc2cccnn2c1C(=O)N1CCCC12CCN(C(=O)OC(C(F)(F)F)C(F)(F)F)CC2 [Example 143, 1,1,1,3,3,3-Hexafluoropropan-2-yl 1-(2-methyl-imidazo[1,2-b]pyridazine-3-carbonyl)-1,8-diazaspiro[4.5] decane-8-carboxylate] | > 75% | > 75% | > 75% | < 100 nM | – | ### (% inhibition is greater than or equal to 75%)
12 | CC1(CN2CCn3cc(C(=O)N4CCCC45CCN(C(=O)OC(C(F)(F)F)C(F)(F)F)CC5)nc3C2)COC1 [Example 170, 1,1,1,3,3,3-Hexafluoropropan-2-yl 1-(7-((3-methyloxetan-3-yl)methyl)-5,6,7,8-tetrahydroimidazo [1,2-a]pyrazine-2-carbonyl)-1,8-diazaspiro[4.5] decane-8-carboxylate] | > 75% | > 75% | > 75% | < 100 nM | – | # (% inhibition less or equal to 25%)
13 | CC1(NC(=O)c2nnc3n2CCN(C2CCOC2)C3)CCN(C(=O)OC(C(F)(F)F)C(F)(F)F)CC1 (stereo not shown) [Example 208, 1,1,1,3,3,3-Hexafluoropropan-2-yl 4-methyl-4-(7-(THF-3-yl)-5,6,7,8-tetrahydro-[1,2,4]triazolo [4,3-a]pyrazine-3-carboxamido) piperidine-1-carboxylate] | > 75% | > 75% | > 75% | < 100 nM | – | ### (% inhibition is greater than or equal to 75%)

The next lines start with results.

Row | inhibition at 1 µM (MAGL [1]) | inhibition at 1 µM (MAGL [2]; [4]) | inhibition at 1 µM (MAGL [2]; [5]) | IC50 (MAGL [2]; human PC3) | IC50 (MAGL [1]) | SMILES | MAGL % Inhibition at 5 mg/kg (Mouse) (MAGL [3])
14 | > 75% | > 75% | > 75% | < 100 nM | – | O=C(OC(C(F)(F)F)C(F)(F)F)N1CCC2(CCCN2C(=O)C2(c3ncc(F)cn3)CC2)CC1 [Example 180, 1,1,1,3,3,3-Hexafluoropropan-2-yl 1-(1-(5-fluoropyrimidin-2-yl)cyclopropane-1-carbonyl)-1,8-diazaspiro[4.5] decane-8-carboxylate] | ### (% inhibition is greater than or equal to 75%)
15 | > 75% | > 75% | > 75% | < 100 nM | – | CC(C)(O)CN1CCn2c(nnc2C(=O)NC2(C)CCN(C(=O)OC(C(F)(F)F)C(F)(F)F)CC2)C1 [Example 206, 1,1,1,3,3,3-Hexafluoropropan-2-yl 4-(7-(2-hydroxy-2-methylpropyl)-5,6,7,8-tetrahydro-[1,2,4]triazolo[4,3-a]pyrazine-3-carboxamido)-4-methylpiperidine-1-carboxylate] | ### (% inhibition is greater than or equal to 75%)
16 | > 75% | > 75% | > 75% | < 100 nM | – | O=C(OC(C(F)(F)F)C(F)(F)F)N1CCC2(CCCN2C(=O)c2cn3c(n2)CN(CC2CC2)CC3)CC1 [Example 154, 1,1,1,3,3,3-Hexafluoropropan-2-yl 1-(7-(cyclopropylmethyl)-5,6,7,8-tetrahydroimidazo[1,2-a]pyrazine-2-carbonyl)-1,8-diazaspiro[4.5] decane-8-carboxylate] | ### (% inhibition is greater than or equal to 75%)
17 | > 75% | > 75% | > 75% | < 100 nM | – | CC1(NC(=O)c2cn3c(n2)CN(C2CC2)CC3)CCN(C(=O)OC(C(F)(F)F)C(F)(F)F)CC1 [Example 174, 1,1,1,3,3,3-Hexafluoropropan-2-yl 4-(7-cyclopropyl-5,6,7,8-tetrahydroimidazo[1,2-a]pyrazine-2-carboxamido)-4-methylpiperidine-1-carboxylate] | ### (% inhibition is greater than or equal to 75%)
18 | > 75% | > 75% | > 75% | < 100 nM | – | O=C(OC(C(F)(F)F)C(F)(F)F)N1CCC2(CCCN2C(=O)c2cc3n(n2)CCN(C2CC2)C3)CC1 [Example 155, 1,1,1,3,3,3-Hexafluoropropan-2-yl 1-(5-cyclopropyl-4,5,6,7-tetrahydropyrazolo [1,5-a]pyrazine-2-carbonyl)-1,8-diazaspiro[4.5] decane-8-carboxylate] | ### (% inhibition is greater than or equal to 75%)
